From US10752587B2, “Homobispiperidinyl derivatives as liver X receptor beta agonists, compositions and their use” (Merck Sharp & Dohme Corp., priority 2015, dated 2020)
Where two headings read alike, the source gives them in different places.

Key:
[1] = biological target: T1, glutathione-S-transferase (GST) tagged LXRalpha LBD (ligand binding domain) (Homo sapiens, UniProt Q13133); assay: LanthaScreen TR-FRET Liver X Receptor Coactivator Assay, co-activator recruitment to LXRalpha LBD; assay type: biochemical; details: for LXR alpha IP (nM) / EC50: potency (Inflection Point, IP), co-activator recruitment to LXRalpha LBD, in relation to T0901317; for Emax: read-out: LXR alpha Activity @ max dose (%); for EC50: read-out: LXR alpha IP
T1 construct: purchased Invitrogen pv4655
T1 sequence (Q13133 209-447 limits assumed): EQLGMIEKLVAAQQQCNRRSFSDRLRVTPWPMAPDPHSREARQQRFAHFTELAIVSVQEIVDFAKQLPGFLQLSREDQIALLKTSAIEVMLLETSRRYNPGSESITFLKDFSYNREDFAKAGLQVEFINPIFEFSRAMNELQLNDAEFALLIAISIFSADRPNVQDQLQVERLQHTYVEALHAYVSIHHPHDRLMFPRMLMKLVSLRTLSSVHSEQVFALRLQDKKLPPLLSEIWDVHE
Summary of the method: (§1)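 Compound-induced coactivator recruitment by the GST-fused ligand binding domain, detected as TR-FRET between Tb-labelled anti-GST antibody and fluorescein-tagged coactivator peptide after room-temperature incubation. IP and Emax expressed versus T0901317 as reference agonist.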

[2] = biological target: T2, glutathione-S-transferase (GST) tagged LXRbeta LBD (ligand binding domain) (Homo sapiens, UniProt P55055); assay: LanthaScreen TR-FRET Liver X Receptor Coactivator Assay, co-activator recruitment to LXRbeta LBD; assay type: biochemical; details: for EC50: potency (Inflection Point, IP), co-activator recruitment to LXRbeta LBD, in relation to T0901317; for Emax: read-out: LXR beta Activity @ max dose (%)
T2 construct: purchased Invitrogen pv4658.pps
T2 sequence (P55055 222-460 limits assumed): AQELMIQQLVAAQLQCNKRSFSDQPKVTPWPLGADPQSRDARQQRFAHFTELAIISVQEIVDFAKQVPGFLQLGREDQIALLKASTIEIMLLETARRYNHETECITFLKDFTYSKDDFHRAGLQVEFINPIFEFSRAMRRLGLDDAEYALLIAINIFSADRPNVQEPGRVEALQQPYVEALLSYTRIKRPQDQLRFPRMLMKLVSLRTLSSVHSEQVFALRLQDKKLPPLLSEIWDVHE
Summary of the method: as §1

[3] = efficacy at max dose, in relation to reference dual agonist T0901317

Compound: COc1cccc([C@@](O)(C(=O)N2CCC(C(=O)N3CCN(c4ccc(C(=O)N(C)C)c(Cl)c4)CC3)CC2)C(F)(F)F)c1 [Example 5-1, (R)-2-chloro-N,N-dimethyl-4-(4-(1-(3,3,3-trifluoro-2-hydroxy-2-(3-methoxyphenyl)propanoyl)piperidine-4-carbonyl)piperazin-1-yl)benzamide]
- LXR alpha IP (nM) [1]: NO IP
- Emax [1]: 5%
- EC50 ([2]; LXR beta IP (nM)): 12400 nM
- Emax [2]: 31%

Compound: CN(C)C(=O)c1ccc(N2CCN(CC3CCN(C(=O)[C@](O)(c4ccccc4)C(F)(F)F)CC3)CC2)cc1Cl [Example 6-1, 2-chloro-N,N-dimethyl-4-[4-({1-[(2R)-3,3,3-trifluoro-2-hydroxy-2-phenylpropanoyl]piperidin-4-yl}methyl)piperazin-1-yl]benzamide]
- Emax [1, 3]: 29%
- EC50 [1]: 9030 nM
- EC50 ([2]; read-out: LXR beta IP): 84 nM
- Emax [2]: 60%

Compound: CN(C)C(=O)c1ccc(N2CCCN(CC3CCN(C(=O)C(O)(c4cccc(Cl)c4)C(F)(F)F)CC3)CC2)cc1Cl (centres unmarked) [Example 6-2, 2-chloro-4-[4-({1-[2-(3-chlorophenyl)-3,3,3-trifluoro-2-hydroxypropanoyl]piperidin-4-yl}methyl)-1,4-diazepan-1-yl]-N,N-dimethylbenzamide]
- Emax [1, 3]: 14%
- LXR alpha IP (nM) [1]: NO IP
- Emax [2, 3]: 98%
- EC50 ([2]; read-out: LXR beta IP): 533 nM

Compound: CN(C)C(=O)c1ccc(N2[C@@H]3CC[C@H]2CN(CC2CCN(C(=O)[C@](O)(c4ccccc4)C(F)(F)F)CC2)C3)cc1Cl [Example 6-3, 2-chloro-N,N-dimethyl-4-[(1R,5S)-3-({1-[(2R)-3,3,3-trifluoro-2-hydroxy-2-phenylpropanoyl]piperidin-4-yl}methyl)-3,8-diazabicyclo[3.2.1]oct-8-yl]benzamide]
- Emax [1, 3]: 18%
- LXR alpha IP (nM) [1]: NO IP
- Emax [2, 3]: 37%
- EC50 ([2]; read-out: LXR beta IP): 2550 nM

Compound: COc1cccc([C@@](O)(C(=O)N2CCC(CN3CCN(c4ccc(C(=O)N(C)C)c(Cl)c4)CC3)CC2)C(F)(F)F)c1 [Example 6-4, 2-chloro-N,N-dimethyl-4-[4-({1-[(2R)-3,3,3-trifluoro-2-hydroxy-2-(3-methoxyphenyl)propanoyl]piperidin-4-yl}methyl)piperazin-1-yl]benzamide]
- Emax [1, 3]: 4%
- LXR alpha IP (nM) [1]: NO IP
- Emax [2, 3]: 34%
- EC50 ([2]; read-out: LXR beta IP): 192 nM

Compound: Cc1nc(N2CCC(CC3CCN(C(=O)[C@](O)(c4ccccc4)C(F)(F)F)CC3)CC2)ccc1C(=O)N(C)C [Example 7-1, (R)—N,N,2-trimethyl-6-(4-((1-(3,3,3-trifluoro-2-hydroxy-2-phenylpropanoyl)piperidin-4-yl)methyl)piperidin-1-yl)nicotinamide]
- Emax [1, 3]: 35%
- EC50 [1]: 895 nM
- Emax [2, 3]: 80%
- EC50 ([2]; read-out: LXR beta IP): 19 nM

Compound: CN(C)C(=O)c1cnc(N2CCC(CC3CCN(C(=O)[C@](O)(c4ccccc4)C(F)(F)F)CC3)CC2)cc1Cl [Example 7-2, 4-chloro-N,N-dimethyl-6-[4-({1-[(2R)-3,3,3-trifluoro-2-hydroxy-2-phenylpropanoyl]piperidin-4-yl}methyl)piperidin-1-yl] pyridine-3-carboxamide]
- Emax [1, 3]: 36%
- LXR alpha IP (nM) [1]: NO IP
- Emax [2, 3]: 32%
- EC50 ([2]; read-out: LXR beta IP): 4670 nM

Compound: Cc1cc(N2CCC(CC3CCN(C(=O)[C@](O)(c4ccccc4)C(F)(F)F)CC3)CC2)ncc1C(=O)N(C)C [Example 7-3, N,N,4-trimethyl-6-[4-({1-[(2R)-3,3,3-trifluoro-2-hydroxy-2-phenylpropanoyl]piperidin-4-yl}methyl)piperidin-1-yl]pyridine-3-carboxamide]
- Emax [1, 3]: 23%
- EC50 [1]: 2180 nM
- Emax [2, 3]: 71%
- EC50 ([2]; read-out: LXR beta IP): 153 nM

Compound: Cc1cc(N2CCC(CC3CCN(C(=O)C(O)(c4cccc(Cl)c4)C(F)(F)F)CC3)CC2)ncc1C(=O)N(C)C (centres unmarked) [Example 7-4, 6-[4-({1-[2-(3-chlorophenyl)-3,3,3-trifluoro-2-hydroxypropanoyl]piperidin-4-yl}methyl)piperidin-1-yl]-N,N,4-trimethylpyridine-3-carboxamide]
- EC50 [1]: 1330 nM
- Emax [1]: 19%
- EC50 ([2]; read-out: LXR beta IP): 52 nM
- Emax [2]: 63%

Compound: COc1cccc([C@@](O)(C(=O)N2CCC(CC3CCN(c4ccc(C(=O)N(C)C)c(C)n4)CC3)CC2)C(F)(F)F)c1 [Example 7-5, N,N,2-trimethyl-6-[4-({1-[(2R)-3,3,3-trifluoro-2-hydroxy-2-(3-methoxyphenyl)propanoyl]piperidin-4-yl}methyl)piperidin-1-yl]pyridine-3-carboxamide]
- Emax [1, 3]: 8%
- LXR alpha IP (nM) [1]: NO IP
- Emax [2, 3]: 69%
- EC50 ([2]; read-out: LXR beta IP): 25 nM

Compound: Cc1cccc(C(O)(C(=O)N2CCC(CC3CCN(c4ccc(C(=O)N(C)C)c(C)n4)CC3)CC2)C(F)(F)F)c1 (centres unmarked) [Example 7-6, N,N,2-trimethyl-6-[4-({1-[3,3,3-trifluoro-2-hydroxy-2-(3-methylphenyl)propanoyl]piperidin-4-yl}methyl)piperidin-1-yl]pyridine-3-carboxamide]
- Emax [1, 3]: 11%
- LXR alpha IP (nM) [1]: NO IP
- Emax [2, 3]: 70%
- EC50 ([2]; read-out: LXR beta IP): 46 nM

Compound: Cc1nc(N2CCC(CC3CCN(C(=O)C(O)(c4cccc(Cl)c4)C(F)(F)F)CC3)CC2)ccc1C(=O)N(C)C (centres unmarked) [Example 7-7, 6-[4-({1-[2-(3-chlorophenyl)-3,3,3-trifluoro-2-hydroxypropanoyl]piperidin-4-yl}methyl)piperidin-1-yl]-N,N,2-trimethylpyridine-3-carboxamide]
- EC50 [1]: 508 nM
- Emax [1]: 24%
- EC50 ([2]; read-out: LXR beta IP): 36 nM
- Emax [2]: 95%

Compound: COc1cccc([C@@](O)(C(=O)N2CCC(CC3CCN(c4ccc(C(=O)N(C)C)c(C)n4)CC3)CC2)C(F)(F)F)c1 [Example 7-8, N,N,2-trimethhyl-6-[4-({1-[(2R)-3,3,3-trifluoro-2-hydroxy-2-(3-methoxyphenyl)propanoyl]piperidin-4-yl}methyl)piperidin-1-yl]pyridine-3-carboxamide]
- LXR alpha Activity @ max dose (%) [1, 3]: 6%
- LXR beta Activity @ max dose (%) [2, 3]: 53%
- EC50 ([2]; read-out: LXR beta IP): 12 nM

Compound: Cc1nc(N2CCC(CC3CCN(C(=O)[C@](O)(c4cc(Cl)cc(Cl)c4)C(F)(F)F)CC3)CC2)ccc1C(=O)N(C)C [Example 7-9, 6-[4-({1-[(2R)-2-(3,5-dichlorophenyl)-3,3,3-trifluoro-2-hydroxypropanoyl]piperidin-4-yl}methyl)piperidin-1-yl]-N,N,2-trimethylpyridine-3-carboxamide]
- Emax [1, 3]: 3%
- LXR alpha IP (nM) [1]: NO IP
- Emax [2, 3]: 70%
- EC50 ([2]; read-out: LXR beta IP): 12 nM

Compound: COc1cccc([C@@](O)(C(=O)N2CC(CC3CCN(c4ccc(C(=O)N(C)C)c(C)n4)CC3)C2)C(F)(F)F)c1 [Example 7-10, N,N,2-trimethyl-6-[4-({1-[(2R)-3,3,3-trifluoro-2-hydroxy-2-(3-methoxyphenyl)propanoyl]azetidin-3-yl}methyl)piperidin-1-yl]pyridine-3-carboxamide]
- Emax [1, 3]: 28%
- EC50 [1]: 20 nM
- Emax [2, 3]: 77%
- EC50 ([2]; read-out: LXR beta IP): 136 nM

Compound: COc1cccc([C@@](O)(C(=O)N2CCC(CC3CCN(c4ccc(C(=O)N(C)C)c(C5CC5)n4)CC3)CC2)C(F)(F)F)c1 [Example 7-11, 2-cyclopropyl-N,N-dimethyl-6-[4-({1-[(2R)-3,3,3-trifluoro-2-hydroxy-2-(3-methoxyphenyl)propanoyl]piperidin-4-yl}methyl)piperidin-1-yl]pyridine-3-carboxamide]
- Emax [1, 3]: 8%
- LXR alpha IP (nM) [1]: NO IP
- Emax [2, 3]: 73%
- EC50 ([2]; read-out: LXR beta IP): 19 nM

Compound: CCOc1cccc([C@@](O)(C(=O)N2CCC(CC3CCN(c4ccc(C(=O)N(C)C)c(C5CC5)n4)CC3)CC2)C(F)(F)F)c1 [Example 7-12, 2-cyclopropyl-6-[4-({1-[(2R)-2-(3-ethoxyphenyl)-3,3,3-trifluoro-2-hydroxypropanoyl]piperidin-4-yl}methyl)piperidin-1-yl]-N,N-dimethylpyridine-3-carboxamide]
- Emax [1, 3]: 6%
- LXR alpha IP (nM) [1]: NO IP
- Emax [2, 3]: 71%
- EC50 ([2]; read-out: LXR beta IP): 24 nM

Compound: COc1cccc([C@@](O)(C(=O)N2CCC(CC3CN(c4ccc(C(=O)N(C)C)c(C)n4)C3)CC2)C(F)(F)F)c1 [Example 7-13, N,N,2-trimethyl-6-[3-({1-[(2R)-3,3,3-trifluoro-2-hydroxy-2-(3-methoxyphenyl)propanoyl]piperidin-4-yl}methyl)azetidin-1-yl]pyridine-3-carboxamide]
- Emax [1, 3]: 4%
- LXR alpha IP (nM) [1]: NO IP
- Emax [2, 3]: 72%
- EC50 ([2]; read-out: LXR beta IP): 1150 nM
